Reference: patent publication US8026362B2, “Non-nucleoside reverse transcriptase inhibitors” (Roche Palo Alto LLC, priority 2007, dated 2011)

Key:
HIV-1 RT = HIV-1 RT (Human immunodeficiency virus type 1 group M subtype B, UniProt P04585); assay: HIV-1 Reverse Transcriptase Assay (RNA-dependent DNA polymerase activity, SPA); format: biochemical; details: 30° C., 30 min, 10% DMSO
Experimental: RNA-dependent DNA polymerase activity was measured using a biotinylated primer oligonucleotide and tritiated dNTP substrate. Newly synthesized DNA was quantified by capturing the biotinylated primer molecules on streptavidin coated Scintillation Proximity Assay (SPA) beads (Amersham). The sequences of the polymerase assay substrate were: 18 nt DNA primer, 5′-Biotin/GTC CCT GTT CGG GCG CCA-3′; 47 nt RNA template, 5′-GGGUCUCUCUGGUUAGACCACUCUAGCAGUGGCGCCCGAACAGGGAC-3′. The biotinylated DNA primer was obtained from the Integrated DNA Technologies Inc. and the RNA template was synthesized by Dharmacon. The DNA polymerase assay (final volume 50 μl) contained 32 nM biotinylated DNA primer, 64 nM RNA substrate, dGTP, dCTP, dTTP (each at 5 μM), 103 nM [^3H]-dATP (specific activity=[…]), in 45 mM Tris-HCl, pH 8.0, 45 mM NaCl, 2.7 mM Mg(CH3COO)2, 0.045% Triton X-100 w/v, 0.9 mM EDTA. The reactions contained 5 ul of serial compound dilutions in 100% DMSO for IC50 determination and the final concentrations of DMSO were 10%. Reactions were initiated by the addition of 30 μl of the HIV-RT enzyme (final concentrations of 1-3 nM). Protein concentrations were adjusted to provide linear product formation for at least 30 min of incubation. After incubation at 30° C. for 30 min, the reaction was quenched by addition of 50 μl of 200 mM EDTA (pH 8.0) and […] SA-PVT SPA beads (Amersham, RPNQ0009, reconstituted in 20 mM Tris-HCl, pH 8.0, 100 mM EDTA and 1% BSA). The beads were left to settle overnight and the SPA signals were counted in a 96-well top counter-NXT (Packard).

Structure (SMILES)	IC50 (HIV-1 RT) [nM]	melting point [°C]
Cc1cn(Cc2ccc(Br)c(Oc3cc(Cl)cc(C#N)c3)c2F)c(=S)[nH]c1=O [Compound I-23, 3-[6-Bromo-2-fluoro-3-(5-methyl-4-oxo-2-thioxo-3,4-dihydro-2H-pyrimidin-1-ylmethyl)-phenoxy]-5-chloro-benzonitrile]	5.5	225 to 226
N#Cc1cc(Cl)cc(Oc2c(Br)ccc(Cn3cc(CO)c(=O)[nH]c3=O)c2F)c1 [Compound I-24, 3-[6-Bromo-2-fluoro-3-(5-hydroxymethyl-2,4-dioxo-3,4-dihydro-2H-pyrimidin-1-ylmethyl)-phenoxy]-5-chloro-benzonitrile]	11.1	226 to 227
Cn1cc(Cc2ccc(Br)c(Oc3cc(Cl)cc(C#N)c3)c2F)c(=O)[nH]c1=O [Compound I-31, 3-[6-Bromo-2-fluoro-3-(1-methyl-2,4-dioxo-1,2,3,4-tetrahydro-pyrimidin-5-ylmethyl)-phenoxy]-5-chloro-benzonitrile]	5.9	226 to 227
N#Cc1cc(C#N)cc(Oc2c(Br)ccc(Cn3cc(Cl)c(=O)[nH]c3=O)c2F)c1 [Compound I-9, 5-[6-Bromo-3-(5-chloro-2,4-dioxo-3,4-dihydro-2H-pyrimidin-1-ylmethyl)-2-fluoro-phenoxy]-isophthalonitrile]	5.2	255 to 255.6
N#Cc1cc(Cl)cc(Oc2c(Br)ccc(Cn3ccc(=O)[nH]c3=O)c2F)c1 [Compound I-3, 3-[6-Bromo-3-(2,4-dioxo-3,4-dihydro-2H-pyrimidin-1-ylmethyl)-2-fluoro-phenoxy]-5-chloro-benzonitrile]	3.6	229 to 230.5
Cc1cc(=O)[nH]c(=O)n1Cc1ccc(Br)c(Oc2cc(Cl)cc(C#N)c2)c1F [Compound I-16, 3-[6-Bromo-2-fluoro-3-(6-methyl-2,4-dioxo-3,4-dihydro-2H-pyrimidin-1-ylmethyl)-phenoxy]-5-chloro-benzonitrile]	26.1	227 to 228
CCc1cn(Cc2ccc(Br)c(Oc3cc(C#N)cc(C#N)c3)c2F)c(=O)[nH]c1=O [Compound I-10, 5-[6-Bromo-3-(5-ethyl-2,4-dioxo-3,4-dihydro-2H-pyrimidin-1-ylmethyl)-2-fluoro-phenoxy]-isophthalonitrile]	13.5	
CCc1ccc(Cn2cc(C)c(=O)[nH]c2=O)c(F)c1Oc1cc(Cl)cc(C#N)c1 [Compound I-25, 3-Chloro-5-[6-ethyl-2-fluoro-3-(5-methyl-2,4-dioxo-3,4-dihydro-2H-pyrimidin-1-ylmethyl)-phenoxy]-benzonitrile]	1.8	180.5 to 181.5
Cc1cn(Cc2ccc(Br)c(Oc3cc(Cl)cc(C#N)c3)c2F)c(=O)nc1N [Compound I-13, 3-[3-(4-Amino-5-methyl-2-oxo-2H-pyrimidin-1-ylmethyl)-6-bromo-2-fluoro-phenoxy]-5-chloro-benzonitrile]	19.6	262.7 to 263.7
CC1CN(Cc2ccc(Br)c(Oc3cc(Cl)cc(C#N)c3)c2F)C(=O)NC1=O (stereo not drawn) [Compound I-29, 3-[6-Bromo-2-fluoro-3-(5-methyl-2,4-dioxo-tetrahydro-pyrimidin-1-ylmethyl)-phenoxy]-5-chloro-benzonitrile]	85.8	227.8 to 228.6
CCc1cn(Cc2ccc(Br)c(Oc3cc(Cl)cc(C#N)c3)c2F)c(=O)[nH]c1=O [Compound I-5, 3-[6-Bromo-3-(5-ethyl-2,4-dioxo-3,4-dihydro-2H-pyrimidin-1-ylmethyl)-2-fluoro-phenoxy]-5-chloro-benzonitrile]	1.6	224.6 to 225.6
N#Cc1cc(Cl)cc(Oc2c(Br)ccc(Cn3cc(F)c(=O)[nH]c3=O)c2F)c1 [Compound I-6, 3-[6-Bromo-2-fluoro-3-(5-fluoro-2,4-dioxo-3,4-dihydro-2H-pyrimidin-1-ylmethyl)-phenoxy]-5-chloro-benzonitrile]	2.2	234 to 236
N#Cc1cc(Cl)cc(Oc2c(Br)ccc(Cn3cc(C(F)(F)F)c(=O)[nH]c3=O)c2F)c1 [Compound I-7, 3-[6-Bromo-3-(2,4-dioxo-5-trifluoromethyl-3,4-dihydro-2H-pyrimidin-1-ylmethyl)-2-fluoro-phenoxy]-5-chloro-benzonitrile]	6	110 to 112
N#Cc1cc(Cl)cc(Oc2c(Br)ccc(CN3CC(=O)NC3=S)c2F)c1 [Compound I-28, 3-[6-Bromo-2-fluoro-3-(4-oxo-2-thioxo-imidazolidin-1-ylmethyl)-phenoxy]-5-chloro-benzonitrile]	86	172 to 173
Cc1cn(Cc2ccc(Br)c(Oc3cc(C#N)cc(C(F)F)c3)c2F)c(=O)[nH]c1=O [Compound I-27, 3-[6-Bromo-2-fluoro-3-(5-methyl-2,4-dioxo-3,4-dihydro-2H-pyrimidin-1-ylmethyl)-phenoxy]-5-difluoromethyl-benzonitrile]	3.3	232.3 to 234.8
Cc1cn(Cc2ccc(Br)c(Oc3cc(C#N)cc(C#N)c3)c2F)c(=O)[nH]c1=O [Compound I-8, 5-[6-Bromo-2-fluoro-3-(5-methyl-2,4-dioxo-3,4-dihydro-2H-pyrimidin-1-ylmethyl)-phenoxy]-isophthalonitrile]	4.3	235.6 to 236
N#Cc1cc(Cl)cc(Oc2c(Br)ccc(CN3CCC(=O)NC3=O)c2F)c1 [Compound I-1, 3-[6-Bromo-3-(2,4-dioxo-tetrahydro-pyrimidin-1-ylmethyl)-2-fluoro-phenoxy]-5-chloro-benzonitrile]	28.7	161.5 to 163
C=CCC1C(=O)NC(=O)N1Cc1ccc(Br)c(Oc2cc(Cl)cc(C#N)c2)c1F (stereo not drawn) [Compound I-22, 3-[3-(5-Allyl-2,4-dioxo-imidazolidin-1-ylmethyl)-6-bromo-2-fluoro-phenoxy]-5-chloro-benzonitrile]	1000	200 to 201
COc1cn(Cc2ccc(Br)c(Oc3cc(Cl)cc(C#N)c3)c2F)c(=O)[nH]c1=O [Compound I-19, 3-[6-Bromo-2-fluoro-3-(5-methoxy-2,4-dioxo-3,4-dihydro-2H-pyrimidin-1-ylmethyl)-phenoxy]-5-chloro-benzonitrile]	2.9	190 to 191.1
N#Cc1cc(Cl)cc(Oc2c(Br)ccc(Cn3cc(Cl)c(=O)[nH]c3=O)c2F)c1 [Compound I-4, 3-[6-Bromo-3-(5-chloro-2,4-dioxo-3,4-dihydro-2H-pyrimidin-1-ylmethyl)-2-fluoro-phenoxy]-5-chloro-benzonitrile]	4.1	260.8 to 261.7
N#Cc1cc(C#N)cc(Oc2c(Br)ccc(Cn3ccc(=O)[nH]c3=O)c2F)c1 [Compound I-11, 5-[6-Bromo-3-(2,4-dioxo-3,4-dihydro-2H-pyrimidin-1-ylmethyl)-2-fluoro-phenoxy]-isophthalonitrile]	22.9	132 to 133
C[C@@H]1C(=O)NC(=O)N1Cc1ccc(Br)c(Oc2cc(Cl)cc(C#N)c2)c1F [Compound I-21, 3-[6-Bromo-2-fluoro-3-((R)-5-methyl-2,4-dioxo-imidazolidin-1-ylmethyl)-phenoxy]-5-chloro-benzonitrile]	16.9	119 to 120
CN1C(=O)NC(=O)C1Cc1ccc(Br)c(Oc2cc(Cl)cc(C#N)c2)c1F (stereo not drawn) [Compound I-32, 3-[6-Bromo-2-fluoro-3-(3-methyl-2,5-dioxo-imidazolidin-4-ylmethyl)-phenoxy]-5-chloro-benzonitrile]	6.3	
Cc1cn(Cc2ccc(Cl)c(Oc3cc(Cl)cc(C#N)c3)c2F)c(=O)[nH]c1=O [Compound I-17, 3-Chloro-5-[6-chloro-2-fluoro-3-(5-methyl-2,4-dioxo-3,4-dihydro-2H-pyrimidin-1-ylmethyl)-phenoxy]-benzonitrile]	3.1	226 to 227.5
N#Cc1cc(Cl)cc(Oc2c(Br)ccc(Cn3ccc(N)nc3=O)c2F)c1 [Compound I-12, 3-[3-(4-Amino-2-oxo-2H-pyrimidin-1-ylmethyl)-6-bromo-2-fluoro-phenoxy]-5-chloro-benzonitrile]	148	240 to 245
N#Cc1cc(Cl)cc(Oc2c(Br)ccc(Cn3cc(O)c(=O)[nH]c3=O)c2F)c1 [Compound I-30, 3-[6-Bromo-2-fluoro-3-(5-hydroxy-2,4-dioxo-3,4-dihydro-2H-pyrimidin-1-ylmethyl)-phenoxy]-5-chloro-benzonitrile]	34.5	238 to 240
CCc1ccc(Cn2cc(Cl)c(=O)[nH]c2=O)c(F)c1Oc1cc(Cl)cc(C#N)c1 [Compound I-26, 3-Chloro-5-[3-(5-chloro-2,4-dioxo-3,4-dihydro-2H-pyrimidin-1-ylmethyl)-6-ethyl-2-fluoro-phenoxy]-benzonitrile]	1.4	
